We go through 2 molecules from ChEMBL document CHEMBL3232945 (Eur J Med Chem, 2014).

The subject of data set [1] is Rattus norvegicus. The data set can be described thus: Antihypertensive activity in Wistar rat assessed as mean arterial pressure at 10 mg/kg, ip measured immediately at 0 min (reference value: 194.08 +/- 1.962 mmHg). It is filed as functional, Artery. As to conditions: route intraperitoneal.
Data set [2] relates to Rattus norvegicus. The data set can be described thus: Antihypertensive activity in Wistar rat assessed as mean arterial pressure at 10 mg/kg, ip measured immediately at 15 mins (reference value: 195.68 +/- 1.623 mmHg). It is filed as functional, Artery. The following applies: route intraperitoneal.
Data set [3] has as its system Rattus norvegicus. The data set can be described thus: Antihypertensive activity in Wistar rat assessed as mean arterial pressure at 10 mg/kg, ip measured immediately at 30 mins (reference value: 194.72 +/- 1.002 mmHg). The format is functional, Artery. The following applies: route intraperitoneal.
Data set [4] concerns Rattus norvegicus. The data set can be described thus: Antihypertensive activity in Wistar rat assessed as mean arterial pressure at 10 mg/kg, ip measured immediately at 45 mins (reference value: 193.96 +/- 0.865 mmHg). The following applies: route intraperitoneal. The format is functional, Artery.
In data set [5] the test system is Rattus norvegicus. The data set can be described thus: Antihypertensive activity in Wistar rat assessed as mean arterial pressure at 10 mg/kg, ip measured immediately at 60 mins (reference value: 195.11 +/- 0.531 mmHg). The format is functional, Artery. As to conditions: route intraperitoneal.
The subject of data set [6] is Rattus norvegicus. The data set can be described thus: Toxicity in […] normotensive Wistar rat assessed as mean arterial pressure at 10 mg/kg, ip measured immediately at 0 min (reference value: 94.21 +/- 2.065 mmHg). As to conditions: in vivo, 0 h. On the set-up: dose 10 mg/kg, route intraperitoneal. The format is organism-based, Artery.
In data set [7] the test system is Rattus norvegicus. The data set can be described thus: Toxicity in […] normotensive Wistar rat assessed as mean arterial pressure at 10 mg/kg, ip after 15 mins (reference value: 93.81 +/- 1.543 mmHg). As to conditions: in vivo, 0.25 h. On the set-up: dose 10 mg/kg, route intraperitoneal. The format is organism-based, Artery.
Data set [8] concerns Rattus norvegicus. The data set can be described thus: Toxicity in […] normotensive Wistar rat assessed as mean arterial pressure at 10 mg/kg, ip after 30 mins (reference value: 94.68 +/- 1.213 mmHg). It is filed as organism-based, Artery. On the set-up: dose 10 mg/kg, route intraperitoneal. As to conditions: in vivo, 0.5 h.
Data set [9] has as its system Rattus norvegicus. The data set can be described thus: Toxicity in […] normotensive Wistar rat assessed as mean arterial pressure at 10 mg/kg, ip after 45 mins (reference value: 94.83 +/- 0.943 mmHg). The format is organism-based, Artery. As to conditions: in vivo, 0.75 h. The arrangement: dose 10 mg/kg, route intraperitoneal.
For data set [10], the system named is Rattus norvegicus. The data set can be described thus: Toxicity in […] normotensive Wistar rat assessed as mean arterial pressure at 10 mg/kg, ip after 60 mins (reference value: 95.07 +/- 1.973 mmHg). The arrangement: dose 10 mg/kg, route intraperitoneal. It is filed as organism-based, Artery. As to conditions: in vivo, 1 h.
In data set [11] the test system is Rattus norvegicus. The data set can be described thus: Toxicity in anesthetized-normotensive Wistar rat assessed as heart rate at 15 mg/kg, ip measured immediately at 0 min (reference value: 316.62 +/- 9.643 bpm). The format is organism-based. On the set-up: dose 15 mg/kg, route intraperitoneal. As to conditions: in vivo, 0 h.
In data set [12] the test system is Rattus norvegicus. The data set can be described thus: Toxicity in anesthetized-normotensive Wistar rat assessed as heart rate at 15 mg/kg, ip after 15 mins (reference value: 313.93 +/- 9.912 bpm). It is filed as organism-based. The arrangement: dose 15 mg/kg, route intraperitoneal. The following applies: in vivo, 0.25 h.
The subject of data set [13] is Rattus norvegicus. The data set can be described thus: Toxicity in anesthetized-normotensive Wistar rat assessed as heart rate at 15 mg/kg, ip after 30 mins (reference value: 317.68 +/- 7.631 bpm). The format is organism-based. The arrangement: dose 15 mg/kg, route intraperitoneal. As to conditions: in vivo, 0.5 h.
Data set [14] deals with Rattus norvegicus. The data set can be described thus: Toxicity in anesthetized-normotensive Wistar rat assessed as heart rate at 15 mg/kg, ip after 60 mins (reference value: 314.96 +/- 9.442 bpm). The format is organism-based. The arrangement: dose 15 mg/kg, route intraperitoneal. As to conditions: in vivo, 1 h.
The test system of data set [15] is Rattus norvegicus. The data set can be described thus: Antiarrhythmic activity in barium chloride-induced Wistar rat assessed as increase in appearance time of arrhythmia at 15 mg/kg, ip administered 60 mins before barium chloride challenge (reference value: 129.4 +/- 4.373 sec). It is filed as functional, Heart. The following applies: route intraperitoneal.
The subject of data set [16] is Rattus norvegicus. The data set can be described thus: Antiarrhythmic activity in barium chloride-induced Wistar rat assessed as increase in mortality time at 15 mg/kg, ip administered 60 mins before barium chloride challenge (reference value: 682.8 +/- 9.656 secs). The format is functional, Heart. As to conditions: route intraperitoneal.
For data set [17], the system named is Rattus norvegicus. The data set can be described thus: Toxicity in anaesthetized-Wistar rat assessed as Q-T ECG interval at 15 mg/kg, ip after 45 mins (reference value: 78.8 +/- 0.927 ms). It is filed as organism-based. On the set-up: dose 15 mg/kg, route intraperitoneal. The following applies: in vivo, 0.75 h.
Data set [18] has as its system Rattus norvegicus. The data set can be described thus: Toxicity in anaesthetized-Wistar rat assessed as Q-T ECG interval at 15 mg/kg, ip after 60 mins (reference value: 79.7 +/- 0.965 ms). The following applies: in vivo, 1 h. The format is organism-based. On the set-up: dose 15 mg/kg, route intraperitoneal.

`CC(C)NCC(O)COc1cccc2ccccc12` (stereo not drawn) [PROPRANOLOL]: the Activity in the data set with Rattus norvegicus [1] turned out to be 195.12 mmHg; in the data set on Rattus norvegicus [2] it was 171.73 mmHg; in the data set with Rattus norvegicus [3], 148.53 mmHg; with Rattus norvegicus [4] it was 120.32 mmHg; in the data set on Rattus norvegicus [5], 152.26 mmHg; in the data set on Rattus norvegicus [6], 92.56 mmHg. Besides, the Activity is 79.43 mmHg in the data set on Rattus norvegicus [7], 62.96 mmHg in the data set with Rattus norvegicus [8], 65.87 mmHg with Rattus norvegicus [9] and 70.21 mmHg with Rattus norvegicus [10].

Turning to `C=C[C@H]1CN2CC[C@H]1C[C@@H]2[C@@H](O)c1ccnc2ccc(OC)cc12` [QUINIDINE], the Activity in the data set with Rattus norvegicus [11] amounted to 311.8 bpm; with Rattus norvegicus [12] it was 285.16 bpm; in the data set with Rattus norvegicus [13] it was 246.18 bpm; in the data set with Rattus norvegicus [14], 286.32 bpm; in the data set with Rattus norvegicus [17], 91.3 min; with Rattus norvegicus [18] it was 90.6 ms. The Time is recorded as 394.8 s in the data set with Rattus norvegicus [15] and 1281.8 s in the data set with Rattus norvegicus [16].
